System: Anguilla japonica leptocephali
Experiment: Induction of Anguilla japonica metamorphosis by T4 treatment in 23° C. breeding water
Type: in vivo
Set-up: key: Y: Metamorp completed (seed production completed).; Nd: Dead
From the text: Stage 1: Starting phase of metamorphosis. The rostral end is rounded, and intestinal degeneration starts.
Stage 2: Peak phase of metamorphosis. Intestinal degeneration becomes pronounced. In the second half, the anus reaches to near the last vertical blood vessel (VBV last).
Stage 3: Late phase of metamorphosis. The preanal length (PAL) becomes equal to or shorter than the last vertical blood vessel length (VBV last Length) (PAL VBV last Length). The body height is apparently low.
Stage 4: Pre-glass eel stage. Almost the eel form, but the body height still remains. Melanophores on the body surface or endogenous melanophores are not yet seen.
Elver stage: Juvenile stage. Food intake can be identified.
A thyroid hormone (e.g., thyroxine (T4)) is adjusted to 50 to 100 mM in a 1- to 2-mL volume messflask. As a solvent, known solvents (water, alcohol) can be used. Ethanol is preferably used as the solvent.
For example, using ethanol as a solvent, T4 adjusted to 50 mM is diluted 500-fold, 5,000-fold, and 50,000-fold, respectively, and adjusted to […], 1 μM, and 100 nM. A feed can be prepared in this manner.
Artificial seawater is added to a breeding vessel, and 1/1000 of the […] T4 is added to prepare […] T4 breeding water.
Half of the breeding water is replaced every two days with breeding water of the same concentration. In the case where the concentration is changed, for example, in the case of changing from 10 nM to 2 nM, 80% to the breeding water is removed, and unadjusted artificial seawater is newly added to make 1 L.
Leptocephali visually considered to have reached a total length of 40 mm (or may be 30 mm to 50 mm, may be 35 mm to 45 mm, or may also be 35 mm or more, 40 mm or more, or 45 mm or more) are selected, anesthetized with 2-phenoxyethanol, and then photographed, and the total length of each larva is measured using an image analyzing device.
The larvae are placed in 10 nM T4 breeding water and then placed in an incubator set at 23° C., and breeding is started. In first one week, observation is performed every two days, and half of the 10 nM T4 breeding water is replaced each time. The average amount of thyroid hormone in the breeding water in stage 1 is 1 nM to 100 nM, for example, and may also be 3 nM to 30 nM, or 5 nM to 20 nM.
For larvae visually judged to have reached the second half of stage 2, the concentration of the breeding water is changed. The breeding water is diluted 5-fold or 10-fold and adjusted to 2 nM or 1 nM T4, and breeding is continued. The average amount of thyroid hormone in the breeding water in stage 2 may be, as compared with the breeding water of stage 1, diluted 2-fold to 20-fold, diluted 3 to 15-fold, or diluted 5 to 10-fold as described above. The average amount of thyroid hormone in the breeding water in stage 2 is 0.1 nM to 20 nM, for example, and may also be 0.5 nM to 10 nM, 1 nM to 5 nM, or 1 nM to 2 nM.
For larvae visually judged to have reached stage 3, the breeding water is quickly changed 0.2 nM T4 breeding water, which is a 5-fold dilution of 1 nM T4 breeding water, and further changed to 0.1 nM T4 breeding water on the following day. […] Also, in larvae whose anus position has not reached the last vertical hemal spine, when they are judged to be on the brink of stage 3, the concentration is changed as above. […]

Measured: Elver

N[C@@H](Cc1cc(I)c(Oc2cc(I)c(O)c(I)c2)c(I)c1)C(=O)O [T4, thyroxine]
Y: individual Exp 5-4, 175 days old, total length 43.5 mm at start of T4 treatment | individual Exp 5-5, 174 days old, total length 36.1 mm at start of T4 treatment | individual Exp. 5-1, 175 days old, total length 38.5 mm at start of T4 treatment | individual Exp. 5-2, 175 days old, total length 41.3 mm at start of T4 treatment | individual Exp. 5-3, 175 days old, total length 41.7 mm at start of T4 treatment

Source: US20200093103A1, “BREEDING WATER FOR ANGUILLIFORMES AND METHOD FOR REARING ANGUILLIFORMES” (SHIN NIPPON BIOMEDICAL LABORATORIES, LTD., priority 2016, published 2020)
